Article PMC9144433, “The Effect of Standardised Leaf Extracts of Gaultheria procumbens on Multiple Oxidants, Inflammation-Related Enzymes, and Pro-Oxidant and Pro-Inflammatory Functions of Human Neutrophils” (Molecules, 2022)

Columns and labels:
hyaluronidase (HYAL) = biological target: T1, hyaluronidase (HYAL); test: HYAL inhibition, 96-well plate reader; type: biochemical; conditions: positive control; n = […]
T1 construct: gene SPAM1; reagents from Sigma-Aldrich; bovine testes preparation is usual
Description: HYAL inhibition, 96-well plate reader on hyaluronidase (HYAL)

lipoxygenase (LOX) = biological target: T2, lipoxygenase (LOX); test: LOX inhibition, 96-well plate reader; type: biochemical; conditions: positive control; n = […]
T2 construct: gene LOX1.1; reagents from Sigma-Aldrich; soybean enzyme is usual

HYAL / IC50 (μg/mL) ^a (hyaluronidase (HYAL))	LOX / IC50 (μg/mL) ^a (lipoxygenase (LOX))	SMILES
31.78 ± 1.52 µg/mL	–	O=c1c(O)c(-c2ccc(O)c(O)c2)oc2cc(O)cc(O)c12 [compound 41, QU]
12.68 ± 1.79 µg/mL	91.89 ± 3.95 µg/mL	COc1ccc2c(c1)c(CC(=O)O)c(C)n2C(=O)c1ccc(Cl)cc1 [IND]
14.07 ± 1.25 µg/mL	120.16 ± 4.86 µg/mL	C[C@@H]1C[C@H]2[C@@H]3CCC4=CC(=O)C=C[C@]4(C)[C@@]3(F)[C@@H](O)C[C@]2(C)[C@@]1(O)C(=O)CO [DEX]
